From patent US20200131142A1, “FARNESOID X RECEPTOR AGONISTS AND USES THEREOF” (Metacrine, Inc., priority 2017, published 2020)
pEC50: −log10 of the molar value.

Target: T1, hFXR (Homo sapiens, UniProt Q96RI1)
T1 construct: expressed in transfected cells; host or cells: CV-1 cells
T1 sequence (Q96RI1 1-486): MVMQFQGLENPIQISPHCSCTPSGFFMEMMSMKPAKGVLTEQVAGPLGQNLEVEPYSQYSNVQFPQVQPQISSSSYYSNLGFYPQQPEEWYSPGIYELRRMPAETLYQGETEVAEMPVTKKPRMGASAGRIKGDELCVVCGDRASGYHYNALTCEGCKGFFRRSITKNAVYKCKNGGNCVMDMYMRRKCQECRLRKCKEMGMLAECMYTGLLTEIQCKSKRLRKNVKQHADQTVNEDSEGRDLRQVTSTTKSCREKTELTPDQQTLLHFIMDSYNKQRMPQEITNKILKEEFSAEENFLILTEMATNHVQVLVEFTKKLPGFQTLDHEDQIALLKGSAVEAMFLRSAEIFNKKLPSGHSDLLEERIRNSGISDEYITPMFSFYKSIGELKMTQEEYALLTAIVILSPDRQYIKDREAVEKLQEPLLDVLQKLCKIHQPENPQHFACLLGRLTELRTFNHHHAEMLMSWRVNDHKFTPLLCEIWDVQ
T1 sequence (P19793 1-462 partner): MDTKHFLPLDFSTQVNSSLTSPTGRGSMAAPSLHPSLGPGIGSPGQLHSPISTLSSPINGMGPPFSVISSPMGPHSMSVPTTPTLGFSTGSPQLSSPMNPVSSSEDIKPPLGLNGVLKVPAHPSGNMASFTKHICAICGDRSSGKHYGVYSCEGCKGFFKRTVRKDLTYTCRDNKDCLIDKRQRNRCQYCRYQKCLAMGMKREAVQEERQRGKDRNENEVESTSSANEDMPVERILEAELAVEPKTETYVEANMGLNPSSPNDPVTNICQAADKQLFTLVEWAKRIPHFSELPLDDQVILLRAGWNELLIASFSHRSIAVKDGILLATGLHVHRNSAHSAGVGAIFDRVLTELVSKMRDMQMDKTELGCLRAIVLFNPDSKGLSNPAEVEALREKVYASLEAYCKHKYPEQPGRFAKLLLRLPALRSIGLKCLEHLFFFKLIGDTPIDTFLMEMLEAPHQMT
Test: In Vitro FXR Assay (TK): hFXR/hRXR TK-ECRE-luc reporter in transfected CV-1 cells
Format: cell-based
Conditions: 18 hrs incubation, luminescence, compounds with maximum efficacy <25% of the Fexarmine control classified as '+'
Procedure, shortened: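 Luminescence from a TK-ECRE-luc reporter was read after 18 h of compound exposure in CV-1 cells. These cells were grown in charcoal-stripped FBS medium and transiently transfected with hFXR, hRXR and YFP expression plasmids.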

pEC50, ≥ 6.60:
COc1ncc(-c2cccc(N(C[C@H]3CC[C@H](c4ccc(OC)c(C)c4)CC3)C(=O)[C@H]3CC[C@H](OC(C)C)CC3)c2)s1 [Compound 9.34, trans-4-Isopropoxy-N-((trans-4-(4-methoxy-3-methylphenyl)cyclohexyl)methyl)-N-(3-(2-methoxythiazol-5-yl)phenyl)cyclohexanecarboxamide]
COc1ccc(C23CCC(CN(c4cc(-c5cnc(C6CC6)s5)ccn4)C(=O)[C@H]4CC[C@H](O)CC4)(CC2)CC3)cc1C [Compound 6.05, trans-N-(4-(2-Cyclopropylthiazol-5-yl)pyridin-2-yl)-4-hydroxy-N-((4-(4-methoxy-3-methylphenyl)bicyclo[2.2.2]octan-1-yl)methyl)cyclohexanecarboxamide]
COc1ccc([C@H]2CC[C@H](CN(c3cccc(-c4cnc(N5CCCCC5)s4)c3)C(=O)[C@H]3CC[C@H](O)CC3)CC2)cc1C [Compound 7.14, trans-4-Hydroxy-N-((trans-4-(4-methoxy-3-methylphenyl)cyclohexyl)methyl)-N-(3-(2-(piperidin-1-yl)thiazol-5-yl)phenyl)cyclohexanecarboxamide]
COc1ccc([C@H]2CC[C@H](CN(c3cccc(OCc4nccs4)c3)C(=O)[C@H]3CC[C@H](O)CC3)CC2)cc1C [Compound 16, trans-4-Hydroxy-N-((trans-4-(4-methoxy-3-methylphenyl)cyclohexyl)methyl)-N-(3-(thiazol-2-ylmethoxy)phenyl)cyclohexanecarboxamide]
COc1ccc([C@H]2CC[C@H](CN(c3cccc(-c4cnc(C5CC5)s4)c3)C(=O)[C@H]3CC[C@H](O)CC3)CC2)cc1S(C)(=O)=O [Compound 9.26, trans-N-(3-(2-Cyclopropylthiazol-5-yl)phenyl)-4-hydroxy-N-((trans-4-(4-methoxy-3-(methylsulfonyl)phenyl)cyclohexyl)methyl) cyclohexanecarboxamide]
CCn1cc([C@H]2CC[C@H](CN(c3cccc(-c4cnc(C5CC5)s4)c3)C(=O)[C@H]3CC[C@H](O)CC3)CC2)cn1 [Compound 9.18, trans-N-(3-(2-Cyclopropylthiazol-5-yl)phenyl)-N-((trans-4-(1-ethyl-1H-pyrazol-4-yl)cyclohexyl)methyl)-4-hydroxycyclohexanecarboxamide]
COc1ccc([C@H]2CC[C@H](CN(c3cccc(-c4cnc(N5CCOCC5)s4)c3)C(=O)[C@H]3CC[C@H](O)CC3)CC2)cc1C [Compound 7.15, trans-4-Hydroxy-N-((trans-4-(4-methoxy-3-methylphenyl)cyclohexyl)methyl)-N-(3-(2-morpholinothiazol-5-yl)phenyl)cyclohexanecarboxamide]
COc1ccc([C@H]2CC[C@H](CN(c3cccc(C#Cc4ncc(C)s4)c3)C(=O)[C@H]3CC[C@H](O)CC3)CC2)cc1C [Compound 8.02, trans-4-Hydroxy-N-((trans-4-(4-methoxy-3-methylphenyl)cyclohexyl)methyl)-N-(3-((5-methylthiazol-2-yl)ethynyl)phenyl)cyclohexanecarboxamide]
COc1ccc([C@H]2CC[C@H](CN(c3cc(-c4cnc(C5CC5)s4)ccn3)C(=O)[C@H]3CC[C@H](O)CC3)CC2)cc1C [Compound 6.04, trans-N-(4-(2-cyclopropylthiazol-5-yl)pyridin-2-yl)-4-hydroxy-N-((trans-4-(4-methoxy-3-methylphenyl)cyclohexyl)methyl) cyclohexanecarboxamide]
COc1ncc(-c2cccc(N(C[C@H]3CC[C@H](c4ccc(OC)c(C)c4)CC3)C(=O)[C@H]3CC[C@H](C)CC3)c2)s1 [Compound 9.31, trans-N-((trans-4-(4-Methoxy-3-methylphenyl)cyclohexyl)methyl)-N-(3-(2-methoxythiazol-5-yl)phenyl)-4-methylcyclohexanecarboxamide]
COc1ncc(-c2cccc(N(C[C@@H]3CC[C@@H](c4ccc(OC)c(C)c4)CC3C)C(=O)[C@H]3CC[C@H](O)CC3)c2)s1 (stereo partly drawn) [Compound 9.11, trans-4-Hydroxy-N-((trans-4-(4-methoxy-3-methylphenyl)-2-methylcyclohexyl)methyl)-N-(3-(2-methoxythiazol-5-yl)phenyl)cyclohexanecarboxamide]
